Measured values taken from US12502380B2, “MrgprX2 antagonists for the treatment of inflammatory disorders” (Dermira, Inc., priority 2019, dated 2025).

Target: T1, Human MrgprX2 (Homo sapiens, UniProt Q96LB1)
T1 construct: expressed in transfected cells
T1 sequence (Q96LB1 1-330): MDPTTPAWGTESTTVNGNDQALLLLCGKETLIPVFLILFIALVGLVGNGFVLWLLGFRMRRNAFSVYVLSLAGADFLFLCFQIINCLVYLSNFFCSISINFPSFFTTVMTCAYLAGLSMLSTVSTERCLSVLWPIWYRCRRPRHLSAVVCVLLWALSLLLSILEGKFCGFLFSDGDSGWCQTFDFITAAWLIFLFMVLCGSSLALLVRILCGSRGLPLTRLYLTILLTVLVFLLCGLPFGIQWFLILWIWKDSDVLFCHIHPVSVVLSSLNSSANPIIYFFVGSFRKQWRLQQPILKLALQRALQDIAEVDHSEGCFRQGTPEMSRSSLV
Experiment: Human MrgprX2 antagonist FLIPR intracellular calcium mobilization assay
Type: cell-based
Conditions: antagonist activity, recombinant hMrgpMRGPRX2 expressing cells, read-out: Human MrgprX2 Antagonist pIC50 (converted)
Procedure, shortened: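 Antagonist activity was read as inhibition of intracellular calcium mobilization (FLIPR) in recombinant cells expressing human MrgprX2. Potency was also checked in LAD-2 human mast cells with endogenous receptor, and orthologue activity in cells expressing mouse MrgprB2, mouse MrgprA1, and gerbil, Chinese hamster and cynomolgus orthologues.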

Row | SMILES | IC50 [nM]
1 | CCN(C[C@H](C)O)C(=O)Nc1ncc(Oc2ccc(C#N)c(F)c2)s1 [Compound E163] | 1
2 | C[C@H](O)CN(C)C(=O)Nc1ncc(Oc2ccc(C#N)c(F)c2)s1 [Compound E164] | 3.16
3 | C[C@H](O)CN(C)C(=O)Nc1ncc(Oc2ccc(F)c(C#N)c2)s1 [Compound E165] | 20
4 | CCN(C[C@H](C)O)C(=O)Nc1ncc(Oc2ccc(F)nc2)s1 [Compound E170] | 3.98
5 | C[C@H](O)CN(C)C(=O)Nc1ncc(Oc2cncc(C#N)c2)s1 [Compound E172] | 1580
6 | CCN(C[C@H](C)O)C(=O)Nc1ncc(Oc2cncc(C#N)c2)s1 [Compound E173] | 31.6
7 | C[C@H](O)CN(C)C(=O)Nc1ncc(Oc2cncc(F)c2)s1 [Compound E176] | 50.1
8 | Cc1cncc(Oc2cnc(NC(=O)N(C)C[C@H](C)O)s2)c1 [Compound E177] | 1580
9 | CCN(C[C@H](C)O)C(=O)Nc1ncc(Oc2cncc(C)c2)s1 [Compound E178] | 31.6
10 | C[C@H](O)CN(C)C(=O)Nc1ncc(Oc2cncc(C(F)(F)F)c2)s1 [Compound E179] | 3980
11 | CCN(C[C@H](C)O)C(=O)Nc1ncc(Oc2cncc(C(F)(F)F)c2)s1 [Compound E180] | 251
12 | CCN(C[C@H](C)O)C(=O)Nc1ncc(Oc2ccnc(C#N)c2)s1 [Compound E181] | 2510
13 | CCN(C[C@H](C)O)C(=O)Nc1ncc(Oc2ccc(F)c(C#N)c2)s1 [Compound E184] | 5.01
14 | CCN(C[C@H](C)O)C(=O)Nc1ncc(Oc2ccnc(F)c2)s1 [Compound E185] | 2
15 | CCN(CCO)C(=O)Nc1ncc(Oc2ccc(F)cc2)s1 [Compound E186] | 31.6
16 | C[C@H](O)CN(C)C(=O)Nc1ncc(Oc2cc(F)cc(C#N)c2)s1 [Compound E187] | 1.26
17 | CCN(C[C@H](C)O)C(=O)Nc1ncc(Oc2cc(F)cc(C#N)c2)s1 [Compound E188] | 1.26
18 | C[C@H](O)CN(C)C(=O)Nc1ncc(Oc2ccc(C#N)cc2F)s1 [Compound E189] | 398
19 | CCN(C[C@H](C)O)C(=O)Nc1ncc(Oc2ccc(C#N)cc2F)s1 [Compound E190] | 6.31
20 | CCN(C[C@H](C)O)C(=O)Nc1ncc(Oc2ccc(F)cc2C#N)s1 [Compound E191] | 794
21 | C[C@H](O)CN(C)C(=O)Nc1ncc(Oc2ccc(F)cc2C#N)s1 [Compound E192] | 3160

Row | SMILES | IC50 [nM]
22 | CCN(C[C@H](C)O)C(=O)Nc1ncc(Oc2cc(C#N)ccc2F)s1 [Compound E193] | 39.8
23 | C[C@H](O)CN(C)C(=O)Nc1ncc(Oc2cc(C#N)ccc2F)s1 [Compound E194] | 501
24 | C[C@H](O)CN(C)C(=O)Nc1ncc(Oc2cc(F)ccc2C#N)s1 [Compound E195] | 2000
25 | CCN(C[C@H](C)O)C(=O)Nc1ncc(Oc2cc(F)ccc2C#N)s1 [Compound E196] | 316
26 | CCN(C[C@H](C)O)C(=O)Nc1ncc(Oc2cccc(C#N)c2F)s1 [Compound E197] | 50.1
27 | CCN(C[C@H](C)O)C(=O)Nc1ncc(Oc2cccc(F)c2C#N)s1 [Compound E199] | 251
28 | CCN(C[C@H](C)O)C(=O)Nc1ncc(Oc2cncnc2)s1 [Compound E201] | 2510
29 | CCN(C[C@H](C)O)C(=O)Nc1ncc(Oc2ccc(Cl)nc2)s1 [Compound E202] | 200
30 | CCN(C[C@H](C)O)C(=O)Nc1ncc(Oc2cccnc2F)s1 [Compound E203] | 100
31 | CN(CCO)C(=O)Nc1ncc(Oc2ccc(F)cc2)s1 [Compound E205] | 251
32 | CCN(C[C@H](C)O)C(=O)Nc1ncc(Oc2cc(C)cc(C#N)c2)s1 [Compound E206] | 6.31
33 | CCN(C[C@H](C)O)C(=O)Nc1nc(C#N)c(Oc2ccc(F)cc2)s1 [Compound E207] | 1000
34 | CCN(C[C@H](C)O)C(=O)Nc1nc(C)c(Oc2ccc(F)cc2)s1 [Compound E208] | 7.94
35 | CCN(C[C@H](C)O)C(=O)Nc1nc(C)c(Oc2cc(F)cc(C#N)c2)s1 [Compound E209] | 3.16
36 | CCN(C[C@@H](C)O)C(=O)Nc1ncc(Oc2cc(F)cc(C#N)c2)s1 [Compound E210] | 2.51
37 | CCN(C[C@H](C)O)C(=O)Nc1ncc(Oc2ccc(C#N)nc2)s1 [Compound E212] | 158
38 | CCN(C[C@H](C)O)C(=O)Nc1ncc(Oc2ccc(CC#N)cc2)s1 [Compound E213] | 1260
39 | CCN(C[C@H](C)O)C(=O)Nc1cnc(Oc2cc(F)cc(F)c2)s1 [Compound E215] | 7940
40 | CC(C)NC(=O)c1nc(F)c(Cc2ccc(F)cc2)s1 [Compound E220, 4-fluoro-5-[(4-fluorophenyl)methyl]-N-isopropyl-thiazole-2-carboxamide] | 6310
41 | CC(C)NC(=O)c1cc(Cc2cc(F)cc(F)c2)on1 [Compound E221, 5-[(3,5-difluorophenyl)methyl]-N-isopropyl-isoxazole-3-carboxamide] | 6310
42 | CC(C)c1nc2ccc(Oc3ccccc3)cc2[nH]1 [Compound E222, 6-phenoxy-2-(propan-2-yl)-1H-1,3-benzodiazole] | 3980

Other lines, results leading:

Row | IC50 [nM] | SMILES
43 | 100 | CCN(C[C@H](C)O)C(=O)Nc1ncc(Oc2cccnc2)s1 [Compound E166]
44 | 3160 | C[C@H](O)CN(C)C(=O)Nc1ncc(Oc2cccnc2)s1 [Compound E167]
45 | 3.98 | C[C@H](O)CN(C)C(=O)Nc1ncc(Oc2ccccc2F)s1 [Compound E168]
46 | 251 | C[C@H](O)CN(C)C(=O)Nc1ncc(Oc2ccc(F)nc2)s1 [Compound E169]
47 | 0.794 | CCN(C[C@H](C)O)C(=O)Nc1ncc(Oc2ccccc2F)s1 [Compound E171]
48 | 631 | C[C@H](O)CN(C)C(=O)Nc1ncc(Oc2ccccc2C#N)s1 [Compound E174]
49 | 316 | CCN(C[C@H](C)O)C(=O)Nc1ncc(Oc2ccccc2C#N)s1 [Compound E175]
50 | 20 | C[C@H](O)CN(C)C(=O)Nc1ncc(Oc2cccc(C(F)(F)F)c2)s1 [Compound E182]
51 | 3.16 | CCN(C[C@H](C)O)C(=O)Nc1ncc(Oc2cccc(C(F)(F)F)c2)s1 [Compound E183]
52 | 398 | C[C@H](O)CN(C)C(=O)Nc1ncc(Oc2cccc(C#N)c2F)s1 [Compound E198]
53 | 1580 | C[C@H](O)CN(C)C(=O)Nc1ncc(Oc2cccc(F)c2C#N)s1 [Compound E200]
54 | 3.16 | CCN(C[C@@H](C)O)C(=O)Nc1ncc(Oc2ccc(F)cc2)s1 [Compound E204]
55 | 398 | CCN(C[C@@H](C)O)C(=O)Nc1ncc(Oc2ccc(C#N)cc2)s1 [Compound E211]
56 | 3160 | CCN(C[C@H](C)O)C(=O)Nc1ncc(Oc2ccc(C(=O)OC)cc2)s1 [Compound E214]
57 | 7940 | CC(C)C(=O)Nc1cnc(Cc2cccc(F)c2)s1 [Compound E216, N-[2-[(3-fluorophenyl)methyl]thiazol-5-yl]-2-methyl-propanamide]
58 | 2000 | CC(C)NC(=O)c1ncc(Cc2cccc(F)c2)s1 [Compound E217, 5-[(3-fluorophenyl)methyl]-N-isopropyl-thiazole-2-carboxamide]
59 | 7940 | CC(C)N(C)C(=O)c1ncc(Cc2cccc(F)c2)s1 [Compound E218, 5-[(3-fluorophenyl)methyl]-N-isopropyl-N-methyl-thiazole-2-carboxamide]
60 | 794 | CC(C)C(=O)Nc1ncc(C(C)c2ccccc2)s1 (stereo not shown) [Compound E219, 2-methyl-N-[5-(1-phenylethyl)thiazol-2-yl]propanamide]
61 | 7940 | CC(C)C(=O)Nc1csc(C(=O)NCc2ccccc2)c1 [Compound E223, N-benzyl-4-(2-methylpropanoylamino)thiophene-2-carboxamide]
